Measurements as given in ChEMBL document CHEMBL5241092, “The antibacterial activity of fluoroquinolone derivatives: An update (2018-2021)” (2021).
Converted amounts (≈) assume the structure as drawn.

Tests used:
[1] = system: Staphylococcus aureus; experiment: Antibacterial activity against methicillin resistant Staphylococcus aureus reference strain; format: functional
[2] = system: Staphylococcus aureus; experiment: Antibacterial activity against methicillin resistant Staphylococcus aureus clinical strain; format: functional
[3] = system: Staphylococcus aureus; experiment: Antibacterial activity against fluoroquinolone sensitive Staphylococcus aureus; format: functional
[4] = system: Staphylococcus aureus; experiment: Antibacterial activity against fluoroquinolone/methicillin resistant Staphylococcus aureus; format: functional
[5] = system: Staphylococcus aureus; experiment: Potency index, ratio of levofloxacin MIC to test compound MIC for antibacterial activity against fluoroquinolone/methicillin resistant Staphylococcus aureus; format: functional
[6] = system: Pseudomonas aeruginosa; experiment: Antibacterial activity against quinolone susceptible Pseudomonas aeruginosa; format: functional
[7] = system: Escherichia coli; experiment: Antibacterial activity against quinolone resistant Escherichia coli; format: functional
[8] = system: Acinetobacter baumannii; experiment: Antibacterial activity against quinolone resistant Acinetobacter baumannii; format: functional
[9] = system: Clostridioides difficile; experiment: Antibacterial activity against Clostridioides difficile; format: functional
[10] = system: Escherichia coli; experiment: Antibacterial activity against quinolone susceptible Escherichia coli; format: functional
[11] = system: Escherichia coli; experiment: Antibacterial activity against Escherichia coli; format: functional
[12] = system: Klebsiella pneumoniae; experiment: Antibacterial activity against Klebsiella pneumoniae; format: functional
[13] = system: Pseudomonas aeruginosa; experiment: Antibacterial activity against Pseudomonas aeruginosa; format: functional
[14] = system: Staphylococcus aureus; experiment: Antibacterial activity against Staphylococcus aureus; format: functional
[15] = system: Staphylococcus epidermidis; experiment: Antibacterial activity against Staphylococcus epidermidis; format: functional
[16] = system: Bacillus subtilis; experiment: Antibacterial activity against Bacillus subtilis; format: functional
[17] = system: Serratia marcescens; experiment: Antibacterial activity against Serratia marcescens; format: functional
[18] = system: Enterococcus faecium; experiment: Antibacterial activity against Enterococcus faecium; format: functional
[19] = system: Chlamydia trachomatis; experiment: Antibacterial activity against Chlamydia trachomatis; format: functional
[20] = system: Enterobacter; experiment: Antibacterial activity against Enterobacter; format: functional
[21] = system: Staphylococcus aureus; experiment: Antibacterial activity against methicillin resistant Staphylococcus aureus; format: functional
[22] = system: Staphylococcus aureus; experiment: Potency index, ratio of ciprofloxacin MIC to test compound MIC for antibacterial activity against Staphylococcus aureus; format: functional
[23] = system: Staphylococcus aureus; experiment: Potency index, ratio of ciprofloxacin MIC to test compound MIC for antibacterial activity against methicillin resistant Staphylococcus aureus; format: functional
[24] = system: Escherichia coli; experiment: Antibacterial activity against ciprofloxacin resistant Escherichia coli; format: functional
[25] = system: Staphylococcus aureus; experiment: Antibacterial activity against ciprofloxacin resistant Staphylococcus aureus; format: functional
[26] = Antibacterial activity against Salmonella typhi; format: functional, Salmonella enterica subsp. enterica serovar Typhimurium; settings: Salmonella enterica
[27] = system: Vibrio cholerae; experiment: Antibacterial activity against Vibrio cholerae; format: functional
[28] = system: Shigella flexneri; experiment: Antibacterial activity against Shigella flexneri; format: functional
[29] = system: Citrobacter freundii; experiment: Antibacterial activity against Citrobacter freundii; format: functional
[30] = system: Micrococcus luteus; experiment: Antibacterial activity against Micrococcus luteus; format: functional
[31] = system: Pseudomonas aeruginosa; experiment: Antibacterial activity against quinolone resistant Pseudomonas aeruginosa; format: functional
[32] = system: Priestia megaterium; experiment: Antibacterial activity against Bacillus megaterium; format: functional
[33] = system: Staphylococcus aureus; experiment: Antibacterial activity against methicillin susceptible Staphylococcus aureus; format: functional
[34] = system: Staphylococcus aureus; experiment: Antibacterial activity against methicillin resistant Staphylococcus aureus 1; format: functional
[35] = system: Staphylococcus aureus; experiment: Antibacterial activity against methicillin resistant Staphylococcus aureus 2; format: functional
[36] = system: Staphylococcus aureus; experiment: Antibacterial activity against methicillin resistant Staphylococcus aureus 3; format: functional
[37] = system: Streptococcus pneumoniae; experiment: Antibacterial activity against Streptococcus pneumoniae; format: functional
[38] = system: Staphylococcus aureus; experiment: Potency index, ratio of gatifloxacin MIC to test compound MIC for antibacterial activity against Staphylococcus aureus; format: functional
[39] = system: Staphylococcus aureus; experiment: Potency index, ratio of gatifloxacin MIC to test compound MIC for antibacterial activity against methicillin susceptible Staphylococcus aureus; format: functional
[40] = system: Streptococcus pneumoniae; experiment: Potency index, ratio of gatifloxacin MIC to test compound MIC for antibacterial activity against methicillin susceptible Streptococcus pneumoniae; format: functional
[41] = system: Staphylococcus aureus; experiment: Potency index, ratio of vancomycin MIC to test compound MIC for antibacterial activity against Staphylococcus aureus; format: functional
[42] = system: Staphylococcus aureus; experiment: Potency index, ratio of vancomycin MIC to test compound MIC for antibacterial activity against methicillin susceptible Staphylococcus aureus; format: functional
[43] = system: Streptococcus pneumoniae; experiment: Potency index, ratio of vancomycin MIC to test compound MIC for antibacterial activity against methicillin susceptible Streptococcus pneumoniae; format: functional

## O=C(O)c1cn(C2CC2)c2cc(N3CCN(Cc4cc5ccccc5cc4O)CC3)c(F)cc2c1=O
[1]
  MIC: 0.08 µg/mL (≈ 0.164 µM)
[2]
  MIC: 0.2 µg/mL (≈ 0.41 µM)

## C[C@H]1COc2c(N3C4CCC3CC(OC(=O)CCl)C4)c(F)cc3c(=O)c(C(=O)O)cn1c23 (stereo partly drawn)
[3]
  MIC: ≤ 0.5 µg/mL
[4]
  MIC: ≤ 0.5 µg/mL
[5]
  Ratio: 4

## C[C@H]1COc2c(N3CCN(C)CC3)c(F)cc3c(=O)c(C(=O)O)cn1c23.C[C@H]1COc2c(N3CCN(C)CC3)c(F)cc3c(=O)c(C(=O)O)cn1c23.O [LEVOFLOXACIN]
[6]
  MIC: 0.015 µg/mL
[7]
  MIC: 4 µg/mL
[8]
  MIC: 4 µg/mL
[9]
  MIC50: 128 µg/mL
  MIC90: > 128 µg/mL

## CNC1CN(c2c(F)cc3c(=O)c(C(=O)O)cn(-c4cc(N)c(F)cc4CO)c3c2Cl)C1
[6]
  MIC: 0.008 µg/mL (≈ 0.0172 µM)
[10]
  MIC: 0.008 µg/mL (≈ 0.0172 µM)

## O=C(CN1CCN(c2cc3c(cc2F)c(=O)c(C(=O)O)cn3-c2ccc(F)cc2)CC1)c1ccc(Cl)cc1
[11]
  MIC: 0.5 µg/mL (≈ 0.929 µM)
[12]
  MIC: 0.5 µg/mL (≈ 0.929 µM)
[13]
  MIC: 0.5 µg/mL (≈ 0.929 µM)
[14]
  MIC: 0.5 µg/mL (≈ 0.929 µM)
[15]
  MIC: 0.5 µg/mL (≈ 0.929 µM)
[16]
  MIC: 0.5 µg/mL (≈ 0.929 µM)
[17]
  MIC: 0.5 µg/mL (≈ 0.929 µM)

## COc1c(N2CCN(C(=O)c3ccc4cccc(O)c4n3)CC2)c(F)cc2c(=O)c(C(=O)O)cn(C3CC3)c12
[12]
  MIC: ≤ 0.06 µg/mL
[13]
  MIC: ≤ 0.06 µg/mL
[14]
  MIC: ≤ 0.06 µg/mL
[8]
  MIC: ≤ 0.06 µg/mL
[18]
  MIC: ≤ 0.06 µg/mL
[19]
  MBC: 2 µg/mL (≈ 3.76 µM)
  MIC: ≤ 0.06 µg/mL
[20]
  MIC: ≤ 0.06 µg/mL

## O=C(O)c1cn(C2CC2)c2cc(N3CCN(Cc4nc5ccccc5c(=O)[nH]4)CC3)c(F)cc2c1=O
[14]
  MIC: 0.016 µg/mL (≈ 0.0327 µM)
[21]
  MIC: 0.016 µg/mL (≈ 0.0327 µM)
[22]
  Ratio: 30
[23]
  Ratio: 60

## Cc1nc(Cl)nc(N2CCN(c3cc4c(cc3F)c(=O)c(C(=O)O)cn4C3CC3)CC2)c1N
[24]
  MIC: 7.4 µg/mL (≈ 15.6 µM)
[25]
  MIC: 7.4 µg/mL (≈ 15.6 µM)

## O=C(O)c1cn(C2CC2)c2cc(N3CCN(CN4c5ccccc5C(=O)N(c5ccc(Cl)cc5)C4c4ccccc4)CC3)c(F)cc2c1=O (stereo not drawn)
[12]
  MIC: 0.1 µg/mL (≈ 0.147 µM)
[13]
  MIC: 0.1 µg/mL (≈ 0.147 µM)
[14]
  MIC: 0.1 µg/mL (≈ 0.147 µM)
[15]
  MIC: 0.1 µg/mL (≈ 0.147 µM)
[26]
  MIC: 0.1 µg/mL (≈ 0.147 µM)
[27]
  MIC: 0.1 µg/mL (≈ 0.147 µM)
[28]
  MIC: 0.1 µg/mL (≈ 0.147 µM)
[29]
  MIC: 0.1 µg/mL (≈ 0.147 µM)

## C[C@H]1COc2c(N3C4CCC3CC(O)C4)c(F)cc3c(=O)c(C(=O)O)cn1c23 (stereo partly drawn)
[3]
  MIC: ≤ 0.5 µg/mL
[5]
  Ratio: 4

## O=C(O)c1cn(C2CC2)c2cc(N3CCNCC3)c(F)cc2c1=O [CIPROFLOXACIN]
[12]
  MIC: 0.15 µg/mL (≈ 0.453 µM)
[13]
  MIC: 0.012 µg/mL (≈ 0.0362 µM)
[14]
  MIC: 0.015 µg/mL (≈ 0.0453 µM)
[30]
  MIC: 7.8 µg/mL (≈ 23.5 µM)
[15]
  MIC: 0.015 µg/mL (≈ 0.0453 µM)
[16]
  MIC: 0.015 µg/mL (≈ 0.0453 µM)
[6]
  MIC: 0.008 µg/mL (≈ 0.0241 µM)
[31]
  MIC: 16 µg/mL (≈ 48.3 µM)
[8]
  MIC: 16 µg/mL (≈ 48.3 µM)
[32]
  MIC: 7.8 µg/mL (≈ 23.5 µM)
[26]
  MIC: 0.15 µg/mL (≈ 0.453 µM)
[33]
  MIC: 0.195 µg/mL (≈ 0.589 µM)
[24]
  MIC: 20.5 µg/mL (≈ 61.9 µM)
[25]
  MIC: 20.5 µg/mL (≈ 61.9 µM)
[19]
  MBC: > 50 µg/mL
[27]
  MIC: 0.15 µg/mL (≈ 0.453 µM)
[28]
  MIC: 0.15 µg/mL (≈ 0.453 µM)
[29]
  MIC: 0.15 µg/mL (≈ 0.453 µM)

## CO/N=C1/C(=O)N(Cc2cn(CC(=O)N3CCN(c4c(F)cc5c(=O)c(C(=O)O)cn(C6CC6)c5c4OC)CC3C)nn2)c2ccc(F)cc21 (stereo not drawn)
[14]
  MIC: 0.06 µg/mL (≈ 0.0869 µM)
[34]
  MIC: ≤ 0.03 µg/mL
[35]
  MIC: ≤ 0.03 µg/mL
[36]
  MIC: ≤ 0.03 µg/mL
[33]
  MIC: 0.06 µg/mL (≈ 0.0869 µM)
[37]
  MIC: 0.06 µg/mL (≈ 0.0869 µM)
[38]
  Ratio: 2
[39]
  Ratio: 2
[40]
  Ratio: 2
[41]
  Ratio: 2
[42]
  Ratio: 2
[43]
  Ratio: 2
